According to PubChem BioAssay (NCI):
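Assay format: 96-well plates, 48-hour exposure. At the GI50, growth is halved. At the TGI there is no net growth.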

Columns and labels:
Test in all cases: NCI-60 cell line screen, 48 h
HT29 colon = test system: HT29 colon
OVCAR-4 ovarian = test system: OVCAR-4 ovarian
UACC-257 melanoma = test system: UACC-257 melanoma
NCI-H460 lung = test system: NCI-H460 lung
RXF 393 renal = test system: RXF 393 renal
SR leukemia = test system: SR leukemia
LOX IMVI melanoma = test system: LOX IMVI melanoma
HS 578T breast = test system: HS 578T breast
HOP-92 NSCLC = test system: HOP-92 NSCLC
KM12 colon = test system: KM12 colon
HL-60(TB) leukemia = test system: HL-60(TB) leukemia

Row | SMILES | TGI (HT29 colon) [µM] | TGI (OVCAR-4 ovarian) [µM] | TGI (UACC-257 melanoma) [µM] | TGI (NCI-H460 lung) [µM] | TGI (RXF 393 renal) [µM] | TGI (SR leukemia) [µM] | TGI (LOX IMVI melanoma) [µM] | TGI (HS 578T breast) [µM] | TGI (HOP-92 NSCLC) [µM] | TGI (KM12 colon) [µM] | TGI (HL-60(TB) leukemia) [µM] | GI50 (HS 578T breast) [µM]
1 | CCN1/C(=C/c2ccc3ccccc3[n+]2CC)C=Cc2ccccc21 | 11 | 19.8 | 7.22 | 4.95 | 12.8 | > 100 | 4.86 | 12.5 | 6.93 | 1.4 |  | 
2 | CCC(=O)OCc1ccc2oc(=O)c(C(=O)Oc3cncc(Cl)c3)cc2c1 | > 100 | > 100 | > 100 | > 100 | > 100 | > 100 | > 100 | > 100 | > 100 | > 100 |  | 
3 | CC(=O)Oc1ccn2nc(C)c(Br)c2c1Br | 44.6 | 30.6 | 32.2 | 53.1 |  | > 100 | 36 | > 100 | 36.7 | > 100 | > 66.5 | 
4 | CC(C)CCCC(C)[C@H]1CC[C@H]2[C@@H]3CC[C@H]4C[C@@H](CCC=C(c5cc(Cl)c(O)c(C(=O)OC(C)(C)C)c5)c5cc(Cl)c(O)c(C(=O)OC(C)(C)C)c5)CC[C@]4(C)[C@H]3CC[C@]12C (stereo not given in full) | > 50 | > 50 |  |  | > 50 |  | > 50 | > 50 |  | > 50 | > 50 | 
5 | N=c1c2c3n(c4c(=O)n(-c5ccccc5)c(=S)n(c(=O)n1-c1ccccc1)c24)CCCCC3 | > 100 | > 100 | > 100 | > 100 | > 100 |  | > 100 | > 100 | > 100 | > 100 | > 100 | 
6 | Oc1cc(Cl)cc2cc(Br)cnc12 | > 100 | > 100 | > 23.9 | > 57.7 | 19.2 | > 20.1 |  | > 100 | > 100 | > 100 | 1.37 | 
7 | C=C1CC/C=C(/C(=O)O)CC[C@H]2[C@@H]1CC2(C)C | > 100 | > 100 | > 100 | > 100 | > 100 |  | > 100 | > 100 | > 100 | > 100 | > 100 | 
8 | Oc1[nH]c2ccccc2c1N=NC1=NCCCCN1 | > 100 | > 100 | > 100 | > 100 |  | > 100 | > 100 | > 100 | > 100 | > 100 |  | 
9 | c1ccc2c(c1)CCc1c-2n(CCN2CCCCC2)c2ccccc12 | 22.8 | 59.4 | 32.5 | 29.7 |  | 32.3 | 29.6 | 35.4 | 35 | 32 |  | 
10 | OC1C(O)C(O)C(O)C(O)C1O (stereo not given) | > 1000 | > 1000 | > 1000 | > 1000 | > 1000 | > 1000 | > 1000 | > 1000 | > 1000 |  |  | 
11 | CCCn1cnc2c(NN=O)ncnc21 | > 100 | > 100 |  | > 100 | > 100 | > 100 |  | > 100 | > 100 | > 100 | > 100 | 
12 | Cc1cc2c(c3oc(C(O)(CO)C4CO4)cc(=O)c13)C(=O)c1c(O)cccc1C2=O (stereo not given) |  |  | 0.0404 | 0.00012 | 0.00254 | 0.00227 |  | 0.0078 | 0.000983 |  | 0.00397 | 0.000702
13 | COC(=O)C(NC(=O)CNC(=O)CSc1nnc(COc2ccc(Cl)cc2)n1-c1ccccc1)C(C)C (stereo not given) | 35.3 | 57.1 | 34.6 | 36.2 | 32.8 | 52.3 | 50 | 62.9 | 51.5 | 35.4 |  | 
14 | O=C1CN(c2ccc(Cl)cc2)C(=O)CN1CCN1CC(=O)N(c2ccc(Cl)cc2)CC1=O | > 100 | > 100 | > 100 | > 100 | > 100 | > 100 |  | > 100 | > 100 | > 100 | > 100 | 
15 | CC1=C/C(=N/N2C(=O)/C(=C/c3ccc(Cl)cc3)N=C2c2ccccc2)CC(C)(C)C1 | > 100 | > 100 | > 100 | > 100 | > 100 | > 100 | > 100 | > 100 | > 100 | > 100 |  | 
16 | N[C@@H]1c2c(Br)sc(Br)c2[C@H](O)[C@@H]1O | > 100 | > 100 | > 100 | > 100 | > 100 |  | > 100 | > 100 | > 100 | > 100 | > 100 | 
17 | CCc1cccc(C(C)C)c1NC(=O)C(=O)C(C(=O)C(=O)OC)c1nc2ccccc2[nH]c1=O (stereo not given) | > 100 | > 100 | > 100 | > 100 | > 100 | > 100 | > 100 |  | > 100 | > 100 | > 100 | 

Row | SMILES | TGI (HT29 colon) [µM] | TGI (OVCAR-4 ovarian) [µM] | TGI (UACC-257 melanoma) [µM] | TGI (NCI-H460 lung) [µM] | TGI (RXF 393 renal) [µM] | TGI (SR leukemia) [µM] | TGI (LOX IMVI melanoma) [µM] | TGI (HS 578T breast) [µM] | TGI (HOP-92 NSCLC) [µM] | TGI (KM12 colon) [µM] | TGI (HL-60(TB) leukemia) [µM] | GI50 (HS 578T breast) [µM]
18 | CC1=C(C2=C(C)C(=O)C(=O)c3cc(C)ccc32)c2ccc(C)cc2C(=O)C1=O | 0.705 |  | 0.382 | 0.531 | 0.62 |  | > 100 | 0.863 | 0.398 | 0.447 | > 100 | 
19 | CCSc1nc2sc(C)c(C)c2c(=O)n1-c1ccc(C(=O)O)cc1 | > 100 | > 100 | > 100 | > 100 | > 100 | > 100 | > 100 |  | > 100 | > 100 | > 100 | 
20 | Cn1c(N2CCCC2)c(C=O)c(=O)n(C)c1=O | > 100 | > 100 | > 100 | > 100 | > 100 |  | > 100 | > 100 | > 100 | > 100 | > 100 | 
21 | Cc1cc(Cc2cc(C)c(NC(=O)C(=O)C3C(=O)NC(=S)NC3=O)c(C(C)C)c2)cc(C(C)C)c1NC(=O)C(=O)C1C(=O)NC(=S)NC1=O | > 100 | > 100 | > 100 | > 100 | > 100 | > 100 | > 100 |  | > 100 | > 100 | > 100 | 
22 | Cn1c(-c2csc(-c3ccc(Cl)cc3)n2)n[nH]c1=S | > 100 | 50.9 | > 100 | > 100 | 46.3 | > 100 | 73 | 83.7 | 27.1 | > 100 |  | 
23 | O=c1c2cc(Br)ccc2oc2nc3n(c(=O)c12)CCCS3 |  | > 100 | > 100 | > 100 | > 100 | > 100 | > 100 | > 100 | > 100 | > 100 |  | 
24 | Cc1nc2c(nc1C)-c1c(c3c(n1Cc1ccccc1)C(=O)CCC3)C(=O)C2=O | 23.9 | 3.59 | 48.3 | > 100 |  | 6.36 |  | 7.99 | 90.3 | 4.64 | 97.7 | 
25 | Oc1ccc2c(c1)OCC(O)(c1ccccc1O)C2 (stereo not given) | > 100 | > 100 | > 100 | > 100 | > 100 |  | > 100 | > 100 | > 100 | > 100 | > 100 | 
26 | CC1=C(C(=O)OCCO[N+](=O)[O-])C(c2ccccc2C(F)(F)F)C(C(=O)OC(C)C)=C(C)N1 (stereo not given) | 36.3 | 93.4 | 25.4 | 58.6 | 31.4 | > 100 | 27.3 |  | 26.8 | 21.8 | > 100 | 
27 | NC(=O)c1n[nH]n(-c2ccccc2)c1=O | > 100 |  | > 100 | > 100 | > 100 |  | > 100 | > 100 |  | > 100 |  | 
28 | CCOC(=O)c1c(C)n(Cc2ccccc2)c2c1cc(O)c1[nH]c3c(c12)CCCC3 | 26.4 | 4.08 | 52.4 | 7.32 |  |  | 16.8 | 7.97 | 2.11 | 13.2 | 5.52 | 
29 | CCCCCCCCCCCCCCCCCCNc1ccn(C2OC(COP(=O)(O)O)C(O)C2O)c(=O)n1 (stereo not given) | > 100 | > 100 | > 100 |  | > 100 |  | > 100 | > 100 | > 100 | > 100 |  | 
30 | Cc1cc2c(cc1O)CC[C@@H]1[C@@H]2CC[C@]2(C)[C@@H](O)CC[C@@H]12 | 31.6 | 29.2 | 42.5 | 29.8 |  | 5.5 | 27 | 7.17 | 30.4 | 15.7 | 5.54 | 
31 | C/C(Cl)=N\OC(=O)Nc1ccccc1C(F)(F)F | 34.7 | 26.9 | > 100 | > 100 |  | 44.9 | 29.2 | > 100 | 19 | > 100 | 15.5 | 
32 | CC(SC(=S)N1CCCCC1)C(=O)Nc1nnc(-c2ccc(Cl)cc2)o1 (stereo not given) | 54.6 | > 100 | > 100 | > 100 | > 100 |  | > 100 | > 100 | > 100 |  | 23.1 | 
33 | CCCCCCOc1ccc(NC2=C(Cl)C(=O)c3cccnc3C2=O)cc1 | 6.66 |  | 5.21 | 3.8 | 2.77 |  | 2.81 | > 10 | 3.53 | 2.97 | 3.78 | 
